Experimental data published in patent US12440484B2, “1,3,4-oxadiazole homophthalimide derivative compounds as histone deacetylase 6 inhibitor, and the pharmaceutical composition comprising the same” (Chong Kun Dang Pharmaceutical Corp., priority 2019, dated 2025).

How the values were obtained:
[1] = target: HDAC6 human recombinant (Homo sapiens (Human), UniProt Q9UBN7); assay: HDAC enzyme activity inhibition (in vitro), HDAC6 assay; type: biochemical; conditions: samples at 0.1, 1, 10, 100 and 1000 nM; 37° C. 60 minutes; fluorescence Ex 390, Em 460
[2] = target: HDAC1 (Homo sapiens (Human), UniProt Q13547); assay: HDAC enzyme activity inhibition (in vitro), HDAC1 Fluorimetric Drug Discovery Assay Kit; type: biochemical; conditions: samples at 100, 1000 and 10000 nM; 37° C. 60 minutes; fluorescence Ex 390, Em 460
Sequence of HDAC1 (Q13547 whole entry): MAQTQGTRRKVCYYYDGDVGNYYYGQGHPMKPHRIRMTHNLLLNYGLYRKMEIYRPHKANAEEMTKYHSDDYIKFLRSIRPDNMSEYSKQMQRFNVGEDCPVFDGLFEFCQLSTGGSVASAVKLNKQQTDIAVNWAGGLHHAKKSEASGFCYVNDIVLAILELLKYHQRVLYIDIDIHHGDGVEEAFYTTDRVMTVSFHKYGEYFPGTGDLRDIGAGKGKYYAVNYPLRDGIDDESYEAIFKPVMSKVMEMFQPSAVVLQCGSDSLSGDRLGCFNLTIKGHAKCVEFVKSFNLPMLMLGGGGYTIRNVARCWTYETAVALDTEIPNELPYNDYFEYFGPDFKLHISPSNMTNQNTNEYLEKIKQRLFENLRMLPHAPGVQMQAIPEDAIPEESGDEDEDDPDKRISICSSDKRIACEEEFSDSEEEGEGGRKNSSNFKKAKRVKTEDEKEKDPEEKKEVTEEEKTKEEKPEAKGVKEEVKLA

Sequence of HDAC6 human recombinant (Q9UBN7 whole entry): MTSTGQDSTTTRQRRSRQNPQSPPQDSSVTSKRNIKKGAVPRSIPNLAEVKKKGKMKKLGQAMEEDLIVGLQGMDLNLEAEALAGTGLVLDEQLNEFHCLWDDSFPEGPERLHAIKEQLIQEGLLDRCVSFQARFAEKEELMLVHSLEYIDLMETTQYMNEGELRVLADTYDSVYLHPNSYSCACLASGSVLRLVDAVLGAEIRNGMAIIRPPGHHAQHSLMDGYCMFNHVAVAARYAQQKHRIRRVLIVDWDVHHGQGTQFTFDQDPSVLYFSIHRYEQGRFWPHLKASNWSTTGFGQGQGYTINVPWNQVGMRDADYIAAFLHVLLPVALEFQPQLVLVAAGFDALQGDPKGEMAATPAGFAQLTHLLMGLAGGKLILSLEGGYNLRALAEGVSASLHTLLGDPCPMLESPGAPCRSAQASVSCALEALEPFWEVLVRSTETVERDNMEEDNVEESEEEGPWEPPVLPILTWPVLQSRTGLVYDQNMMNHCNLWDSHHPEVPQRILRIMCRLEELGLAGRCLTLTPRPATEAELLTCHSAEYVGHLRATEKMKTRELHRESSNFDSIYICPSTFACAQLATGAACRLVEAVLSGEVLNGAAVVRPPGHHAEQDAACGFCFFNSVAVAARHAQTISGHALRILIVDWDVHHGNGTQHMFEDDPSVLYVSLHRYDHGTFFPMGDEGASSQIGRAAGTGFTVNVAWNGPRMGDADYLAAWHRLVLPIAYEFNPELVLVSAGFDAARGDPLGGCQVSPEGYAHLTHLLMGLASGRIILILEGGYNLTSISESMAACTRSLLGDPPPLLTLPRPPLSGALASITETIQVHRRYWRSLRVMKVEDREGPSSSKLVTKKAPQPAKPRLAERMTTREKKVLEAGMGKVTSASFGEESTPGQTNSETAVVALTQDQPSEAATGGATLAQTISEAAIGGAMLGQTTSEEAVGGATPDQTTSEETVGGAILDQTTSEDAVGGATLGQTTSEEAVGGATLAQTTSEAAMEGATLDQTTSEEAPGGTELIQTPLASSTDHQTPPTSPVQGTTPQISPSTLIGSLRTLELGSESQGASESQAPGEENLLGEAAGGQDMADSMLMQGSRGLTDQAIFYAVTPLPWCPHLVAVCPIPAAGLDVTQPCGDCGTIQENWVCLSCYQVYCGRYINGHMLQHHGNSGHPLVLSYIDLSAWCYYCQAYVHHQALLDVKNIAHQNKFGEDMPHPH

IC50 [1] [nM]	IC50 [2] [µM]	SMILES
50	> 10	CC1(C)C(=O)N(Cc2ccc(-c3nnc(C(F)F)o3)cn2)C(=O)c2c(-c3cccnc3)cccc21 [Compound 85, 2-((5-(5-(difluoromethyl)-1,3,4-oxadiazole-2-yl)pyridine-2-yl)methyl)-4,4-dimethyl-8-(pyridine-3-yl)isoquinoline-1,3(2H,4H)-dione]
49	> 10	CC1(C)C(=O)N(Cc2ccc(-c3nnc(C(F)F)o3)cn2)C(=O)c2ccc(-c3ccco3)cc21 [Compound 74, 2-((5-(5-(difluoromethyl)-1,3,4-oxadiazole-2-yl)pyridine-2-yl)methyl)-6-(furan-2-yl)-4,4-dimethylisoquinoline-1,3(2H,4H)-dione]
83	> 10	CC1(C)C(=O)N(Cc2ncc(-c3nnc(C(F)F)o3)cn2)C(=O)c2ccccc21 [Compound 12, 2-((5-(5-(difluoromethyl)-1,3,4-oxadiazole-2-yl)pyrimidine-2-yl)methyl)-4,4-dimethylisoquinoline-1,3(2H,4H)-dione]
34	> 10	CC1(C)C(=O)N(Cc2ccc(-c3nnc(C(F)F)o3)cn2)C(=O)c2ccc(N3CCN(CC(=O)N4CCCC4)CC3)cc21 [Compound 33, 2-((5-(5-(difluoromethyl)-1,3,4-oxadiazole-2-yl)pyridine-2-yl)methyl)-4,4-dimethyl-6-(4-(2-oxo-2-(pyrrolidine-1-yl)ethyl)piperazine-1-yl)isoquinoline-1,3(2H,4H)-dione]
81	> 10	CCN1CCN(c2ccc3c(c2)C(CC)(CC)C(=O)N(Cc2ccc(-c4nnc(C(F)F)o4)cn2)C3=O)CC1 [Compound 142, 2-((5-(5-(difluoromethyl)-1,3,4-oxadiazole-2-yl)pyridine-2-yl)methyl)-4,4-diethyl-6-(4-ethylpiperazine-1-yl)isoquinoline-1,3(2H,4H)-dione]
65	> 10	CC1(C)C(=O)N(Cc2ccc(-c3nnc(C(F)F)o3)cn2)C(=O)c2ccc(Br)cc21 [Compound 23, 6-bromo-2-((5-(5-(difluoromethyl)-1,3,4-oxadiazole-2-yl)pyridine-2-yl)methyl)-4,4-dimethylisoquinoline-1,3(2H,4H)-dione]
200	> 10	CC(C)(C)OC(=O)N1CCN(c2ccc3c(c2)C(=O)N(Cc2ccc(-c4nnc(C(F)F)o4)cn2)C(=O)C3(C)C)CC1 [Compound 116, tert-butyl 4-(2-((5-(5-(difluoromethyl)-1,3,4-oxadiazole-2-yl)pyridine-2-yl)methyl)-4,4-dimethyl-1,3-dioxo-1,2,3,4-tetrahydroisoquinoline-7-yl)piperazine-1-carboxylate]
17	> 10	CC(=O)N1CCC(c2ccc3c(c2)C(=O)N(Cc2ccc(-c4nnc(C(F)F)o4)cn2)C(=O)C3(C)C)CC1 [Compound 127, 7-(1-acetylpiperidine-4-yl)-2-((5-(5-(difluoromethyl)-1,3,4-oxadiazole-2-yl)pyridine-2-yl)methyl)-4,4-dimethylisoquinoline-1,3(2H,4H)-dione]
15	> 10	CN(C)C1CCN(c2ccc3c(c2)C(C)(C)C(=O)N(Cc2ccc(-c4nnc(C(F)F)o4)cn2)C3=O)CC1 [Compound 37, 2-((5-(5-(difluoromethyl)-1,3,4-oxadiazole-2-yl)pyridine-2-yl)methyl)-6-(4-(dimethylamino)piperidine-1-yl)-4,4-dimethylisoquinoline-1,3(2H,4H)-dione]
96	> 10	CC(F)(F)CN1CCN(c2ccc3c(c2)C(C)(C)C(=O)N(Cc2ccc(-c4nnc(C(F)F)o4)cn2)C3=O)CC1 [Compound 138, 2-((5-(5-(difluoromethyl)-1,3,4-oxadiazole-2-yl)pyridine-2-yl)methyl)-6-(4-(2,2-difluoropropyl)piperazine-1-yl)-4,4-dimethylisoquinoline-1,3(2H,4H)-dione]
30	> 10	CC1(C)C(=O)N(Cc2ccc(-c3nnc(C(F)F)o3)cn2)C(=O)c2ccccc21 [Compound 8, 2-((5-(5-(difluoromethyl)-1,3,4-oxadiazole-2-yl)pyridine-2-yl)methyl)-4,4-dimethylisoquinoline-1,3(2H,4H)-dione]
79	> 10	CC1(C)C(=O)N(Cc2ccc(-c3nnc(C(F)F)o3)cn2)C(=O)c2c(-c3ccncc3)cccc21 [Compound 84, 2-((5-(5-(difluoromethyl)-1,3,4-oxadiazole-2-yl)pyridine-2-yl)methyl)-4,4-dimethyl-8-(pyridine-4-yl)isoquinoline-1,3(2H,4H)-dione]
61	> 10	CC1(C)C(=O)N(Cc2ccc(-c3nnc(C(F)F)o3)cn2)C(=O)c2ccc(C3CCN(CC4CCOCC4)CC3)cc21 [Compound 62, 2-((5-(5-(difluoromethyl)-1,3,4-oxadiazole-2-yl)pyridine-2-yl)methyl)-4,4-dimethyl-6-(1-((tetrahydro-2H-pyran-4-yl)methyl)piperidine-4-yl)isoquinoline-1,3(2H,4H)-dione]
33	> 10	CC1(C)C(=O)N(Cc2ccc(-c3nnc(C(F)F)o3)cn2)C(=O)c2ccc(C3CCN(C4CC5(COC5)C4)CC3)cc21 [Compound 63, 6-(1-(2-oxaspiro[3.3]heptane-6-yl)piperidine-4-yl)-2-((5-(5-(difluoromethyl)-1,3,4-oxadiazole-2-yl)pyridine-2-yl)methyl)-4,4-dimethylisoquinoline-1,3(2H,4H)-dione]
561	> 10	O=C1c2ccccc2C(=O)N1Cc1ccc(-c2nnc(C(F)F)o2)cc1F [Compound 2, 2-(4-(5-(difluoromethyl)-1,3,4-oxadiazole-2-yl)-2-fluorobenzyl)isoindoline-1,3-dione]
18	> 10	CN1CCN(c2ccc3c(c2)C(C)(C)C(=O)N(Cc2ccc(-c4nnc(C(F)F)o4)cn2)C3=O)CC1 [Compound 29, 2-((5-(5-(difluoromethyl)-1,3,4-oxadiazole-2-yl)pyridine-2-yl)methyl)-4,4-dimethyl-6-(4-methylpiperazine-1-yl)isoquinoline-1,3(2H,4H)-dione]
149	> 10	Cn1c(=O)n(Cc2ccc(-c3nnc(C(F)F)o3)cn2)c(=O)c2ccc(-c3ccccc3F)cc21 [Compound 99, 3-((5-(5-(difluoromethyl)-1,3,4-oxadiazole-2-yl)pyridine-2-yl)methyl)-7-(2-fluorophenyl)-1-methylquinazoline-2,4(1H,3H)-dione]
19	> 10	CC(C)N1CCC(c2ccc3c(c2)C(=O)N(Cc2ccc(-c4nnc(C(F)F)o4)cn2)C(=O)C3(C)C)CC1 [Compound 69, 2-((5-(5-(difluoromethyl)-1,3,4-oxadiazole-2-yl)pyridine-2-yl)methyl)-7-(1-isopropylpiperidine-4-yl)-4,4-dimethylisoquinoline-1,3(2H,4H)-dione]
32	> 10	CN(C)C(=O)C1CCN(c2ccc3c(c2)C(C)(C)C(=O)N(Cc2ccc(-c4nnc(C(F)F)o4)cn2)C3=O)CC1 [Compound 57, 1-(2-((5-(5-(difluoromethyl)-1,3,4-oxadiazole-2-yl)pyridine-2-yl)methyl)-4,4-dimethyl-1,3-dioxo-1,2,3,4-tetrahydroisoquinoline-6-yl)-N,N-dimethylpiperidine-4-carboxamide]
1020	> 10	O=c1c2ccccc2n(CCN2CCCCC2)c(=O)n1Cc1ccc(-c2nnc(C(F)F)o2)cc1 [Compound 11, 3-(4-(5-(difluoromethyl)-1,3,4-oxadiazole-2-yl)benzyl)-1-(2-(piperidine-1-yl)ethyl)quinazoline-2,4(1H,3H)-dione]
19	> 10	CN1CCC(c2ccc3c(c2)C(C)(C)C(=O)N(Cc2ccc(-c4nnc(C(F)F)o4)cn2)C3=O)CC1 [Compound 44, 2-((5-(5-(difluoromethyl)-1,3,4-oxadiazole-2-yl)pyridine-2-yl)methyl)-4,4-dimethyl-6-(1-methylpiperidine-4-yl)isoquinoline-1,3(2H,4H)-dione]
43	> 10	CC1(C)C(=O)N(Cc2ccc(-c3nnc(C(F)F)o3)cn2)C(=O)c2cc(-c3ccco3)ccc21 [Compound 113, 2-((5-(5-(difluoromethyl)-1,3,4-oxadiazole-2-yl)pyridine-2-yl)methyl)-7-(furan-2-yl)-4,4-dimethylisoquinoline-1,3(2H,4H)-dione]
33	> 10	Cn1c(=O)n(Cc2ccc(-c3nnc(C(F)F)o3)cn2)c(=O)c2cc(-c3cccnc3)ccc21 [Compound 91, 3-((5-(5-(difluoromethyl)-1,3,4-oxadiazole-2-yl)pyridine-2-yl)methyl)-1-methyl-6-(pyridine-3-yl)quinazoline-2,4(1H,3H)-dione]
98	> 10	CC1(C)C(=O)N(Cc2ccc(-c3nnc(C(F)F)o3)cn2)C(=O)c2c(N3CCOCC3)cccc21 [Compound 83, 2-((5-(5-(difluoromethyl)-1,3,4-oxadiazole-2-yl)pyridine-2-yl)methyl)-4,4-dimethyl-8-morpholinoisoquinoline-1,3(2H,4H)-dione]
40	> 10	CC1(C)C(=O)N(Cc2ccc(-c3nnc(C(F)F)o3)cn2)C(=O)c2cc(N3CCOCC3)ccc21 [Compound 52, 2-((5-(5-(difluoromethyl)-1,3,4-oxadiazole-2-yl)pyridine-2-yl)methyl)-4,4-dimethyl-7-morpholinoisoquinoline-1,3(2H,4H)-dione]

SMILES	IC50 [1] [nM]	IC50 [2] [µM]
CC(C)N1CCC(c2ccc3c(c2)C(C)(C)C(=O)N(Cc2ccc(-c4nnc(C(F)F)o4)cn2)C3=O)CC1 [Compound 60, 2-((5-(5-(difluoromethyl)-1,3,4-oxadiazole-2-yl)pyridine-2-yl)methyl)-6-(1-isopropylpiperidine-4-yl)-4,4-dimethylisoquinoline-1,3(2H,4H)-dione]	22	> 10
